According to patent US12396461B2, “Functional peptides having antimicrobial activity against phytopathogenic microorganisms” (TOYOTA JIDOSHA KABUSHIKI KAISHA, priority 2019, dated 2025):
Where two headings read alike, the source gives them in different places.

Experiments:
Assay type in all cases: cell-based
[1] = tested on: Fusarium oxysporum; design: key to Plate antimicrobial activity test Fusarium oxysporum, level: a case where hyphae extended to the entire well and no antimicrobial activity was found is defined as “level 0,”; a case where hyphae extended to less than a half of the well and thus the peptide inhibited the growth of the hyphae is defined as “level 1,”; a case where ungerminated spores were present and the peptide partially inhibited the germination is defined as “level 2,”; a case where all spores were ungerminated and the peptide completely inhibited the germination is defined as “level 3.”
[2] = tested on: Colletotrichum destructivum; design: key to Plate antimicrobial activity test Colletotrichum destructivum, level: a case where hyphae extended to the entire well and no antimicrobial activity was found is defined as “level 0,”; a case where hyphae extended to less than a half of the well and thus the peptide inhibited the growth of the hyphae is defined as “level 1,”; a case where ungerminated spores were present and the peptide partially inhibited the germination is defined as “level 2,”; a case where all spores were ungerminated and the peptide completely inhibited the germination is defined as “level 3.”; details: 25° C. for 1 day or 2 days, microscopic observation
[3] = tested on: Colletotrichum orbiculare; design: key to Plate antimicrobial activity test Colletotrichum orbiculare, level: a case where hyphae extended to the entire well and no antimicrobial activity was found is defined as “level 0,”; a case where hyphae extended to less than a half of the well and thus the peptide inhibited the growth of the hyphae is defined as “level 1,”; a case where ungerminated spores were present and the peptide partially inhibited the germination is defined as “level 2,”; a case where all spores were ungerminated and the peptide completely inhibited the germination is defined as “level 3.”; details: 25° C. for 1 day or 2 days, microscopic observation
[4] = tested on: Pyricularia oryzae; design: key to Plate antimicrobial activity test Pyricularia oryzae, level: a case where hyphae extended to the entire well and no antimicrobial activity was found is defined as “level 0,”; a case where hyphae extended to less than a half of the well and thus the peptide inhibited the growth of the hyphae is defined as “level 1,”; a case where ungerminated spores were present and the peptide partially inhibited the germination is defined as “level 2,”; a case where all spores were ungerminated and the peptide completely inhibited the germination is defined as “level 3.”; details: 25° C. for 1 day or 2 days, microscopic observation
[5] = tested on: Botrytis cinerea; design: key to Plate antimicrobial activity test Botrytis cinerea, level: a case where hyphae extended to the entire well and no antimicrobial activity was found is defined as “level 0,”; a case where hyphae extended to less than a half of the well and thus the peptide inhibited the growth of the hyphae is defined as “level 1,”; a case where ungerminated spores were present and the peptide partially inhibited the germination is defined as “level 2,”; a case where all spores were ungerminated and the peptide completely inhibited the germination is defined as “level 3.”; details: 25° C. for 1 day or 2 days, microscopic observation

| Substance | Plate antimicrobial activity test Fusarium oxysporum, level [1] | Plate antimicrobial activity test Colletotrichum destructivum, level ([2]; peptide 1 μM) | Plate antimicrobial activity test Colletotrichum destructivum, level ([2]; peptide 10 μM) | Plate antimicrobial activity test Colletotrichum destructivum, level ([2]; peptide 100 μM) | Plate antimicrobial activity test Colletotrichum orbiculare, level ([3]; peptide 1 μM) | Plate antimicrobial activity test Colletotrichum orbiculare, level ([3]; peptide 10 μM) | Plate antimicrobial activity test Colletotrichum orbiculare, level ([3]; peptide 100 μM) | Plate antimicrobial activity test Pyricularia oryzae, level ([4]; peptide 1 μM) | Plate antimicrobial activity test Pyricularia oryzae, level ([4]; peptide 10 μM) | Plate antimicrobial activity test Pyricularia oryzae, level ([4]; peptide 100 μM) | Plate antimicrobial activity test Botrytis cinerea, level ([5]; peptide 1 μM) | Plate antimicrobial activity test Botrytis cinerea, level ([5]; peptide 10 μM) | Plate antimicrobial activity test Botrytis cinerea, level ([5]; peptide 100 μM) |
| --- | --- | --- | --- | --- | --- | --- | --- | --- | --- | --- | --- | --- | --- |
| IVVKT (listed as Solanum lycopersicum) [TsORF6-1-5aa-5, partial peptide of TsORF6-1, 5 amino acid residues] | 0 | 0 | 0 | 0 | 0 | 0 | 0 | 0 | 0 | 0 | 0 | 0 | 0 |
| KNKKVAKM (listed as Solanum lycopersicum) [TsORF6-1-8aa-12, partial peptide of TsORF6-1, 8 amino acid residues] | 0 | 0 | 0 | 0 | 0 | 0 | 0 | 0 | 0 | 0 | 0 | 0 | 0 |
| MIVVK (listed as Solanum lycopersicum) [TsORF6-1-5aa-4, partial peptide of TsORF6-1, 5 amino acid residues] | 0 | 0 | 0 | 1 | 0 | 0 | 1 | 0 | 0 | 1 | 0 | 0 | 1 |
| MIVVKTKV (listed as Solanum lycopersicum) [TsORF6-1-8aa-4, partial peptide of TsORF6-1, 8 amino acid residues] | 0 | 0 | 0 | 0 | 0 | 0 | 0 | 0 | 0 | 0 | 0 | 0 | 0 |
| VVKTKVKN (listed as Solanum lycopersicum) [TsORF6-1-8aa-6, partial peptide of TsORF6-1, 8 amino acid residues] | 0 | 0 | 0 | 0 | 0 | 0 | 0 | 0 | 0 | 0 | 0 | 0 | 0 |
| KTKVK (listed as Solanum lycopersicum) [TsORF6-1-5aa-8, partial peptide of TsORF6-1, 5 amino acid residues] | 0 | 0 | 0 | 0 | 0 | 0 | 0 | 0 | 0 | 0 | 0 | 0 | 0 |
| VKNKKVAK (listed as Solanum lycopersicum) [TsORF6-1-8aa-11, partial peptide of TsORF6-1, 8 amino acid residues] | 0 | 0 | 0 | 0 | 0 | 0 | 0 | 0 | 0 | 0 | 0 | 0 | 0 |
| KNKKV (listed as Solanum lycopersicum) [TsORF6-1-5aa-12, partial peptide of TsORF6-1, 5 amino acid residues] | 0 | 0 | 0 | 0 | 0 | 0 | 0 | 0 | 0 | 0 | 0 | 0 | 0 |
